Data from US6737383B1, “Herbicidal oxadiazolidines” (priority 1999, dated 2004).

How the values were obtained:
surinam grass = experiment: Test B pre/postemergence surinam grass; type: in vivo, Brachiaria decumbens
Method in brief: (§1)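 Response is a visual 0-to-10 score relative to untreated plants, where 0 means no effect and 10 means complete control, taken twelve to sixteen days after application. Treatments went onto soil at planting and onto foliage of 1- to 4-leaf plants, using a surfactant-containing non-phytotoxic solvent.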

blackgrass = experiment: Test B pre/postemergence blackgrass; type: in vivo, Alopecurus myosuroides
Method in brief: as §1

bedstraw = experiment: Test B pre/postemergence bedstraw; type: in vivo, Galium aparine
Method in brief: as §1

pigweed = experiment: Test B pre/postemergence pigweed; type: in vivo, Amaranthus retroflexus
Method in brief: as §1

wild oat = experiment: Test B pre/postemergence wild oat; type: in vivo, Avena fatua
Method in brief: as §1

purple nutsedge = experiment: Test B pre/postemergence purple nutsedge; type: in vivo, Cyperus rotundus
Method in brief: as §1

rape = experiment: Test B pre/postemergence rape; type: in vivo, Brassica napus
Method in brief: as §1

wheat = experiment: Test B pre/postemergence wheat; type: in vivo, Triticum aestivum
Method in brief: as §1

duck salad = experiment: Test B flood test duck salad; type: in vivo, Heteranthera limosa
Method in brief: (§2)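 Read-out is a visual response score from 0 (no effect) to 10 (complete control), assigned by comparison with untreated controls. Treatment was applied at the 2-leaf stage, and plants stayed in the greenhouse for twelve to sixteen days before scoring.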

crabgrass = experiment: Test B pre/postemergence crabgrass; type: in vivo, Digitaria sanguinalis
Method in brief: as §1

corn = experiment: Test B pre/postemergence corn; type: in vivo, Zea mays
Method in brief: as §1

sugar beet = experiment: Test B pre/postemergence sugar beet; type: in vivo, Beta vulgaris
Method in brief: as §1

velvetleaf = experiment: Test B pre/postemergence velvetleaf; type: in vivo, Abutilon theophrasti
Method in brief: as §1

smallflower flatsedge = experiment: Test B flood test smallflower flatsedge; type: in vivo, Cyperus difformis
Method in brief: as §2

soybean = experiment: Test B pre/postemergence soybean; type: in vivo, Glycine max
Method in brief: as §1

rice = experiment: Test B flood test rice; type: in vivo, Oryza sativa
Method in brief: as §2

[1] = Preemergence, Rate 62 g/ha, scale of 0 to 10 where 0 is no effect and 10 is complete control
[2] = Preemergence, Rate 250 g/ha, scale of 0 to 10 where 0 is no effect and 10 is complete control
[3] = Preemergence, Rate 500 g/ha, scale of 0 to 10 where 0 is no effect and 10 is complete control
[4] = Rate 62 g/ha, Postemergence, scale 0 to 10 (0 no effect, 10 complete control)
[5] = Rate 125 g/ha, Postemergence, scale of 0 to 10 where 0 is no effect and 10 is complete control
[6] = Rate 250 g/ha, Postemergence, scale of 0 to 10 where 0 is no effect and 10 is complete control
[7] = Rate 500 g/ha, Postemergence, scale 0 to 10, 0 no effect, 10 complete control
[8] = Rate 62 g/ha, headed Pre-emergence (flood test species), scale 0 to 10 (0 no effect, 10 complete control)
[9] = Rate 125 g/ha, Pre-emergence, flood test species, scale 0 to 10 where 0 is no effect and 10 is complete control
[10] = Rate 250 g/ha, Pre-emergence, flood-test species, scale 0 to 10, 0 is no effect, 10 is complete control
[11] = Rate 500 g/ha, Pre-emergence, flood test species, scale 0 to 10 (0 no effect, 10 complete control)

CC(C)N(C(=O)n1oc(=O)n(C2CCCCO2)c1=O)c1ccc(F)cc1 (centres unmarked) [Compound 311]
2: Bedstraw plant response rating (bedstraw; [7]) | Soybean plant response rating (soybean; [4]) | Soybean plant response rating (soybean; [5])
0: B. signalgrass plant response rating (surinam grass; [1]) | B. signalgrass plant response rating (0 to 10 scale, 0 is no effect, 10 is complete control) (surinam grass; Preemergence, Rate 125 g/ha) | B. signalgrass plant response rating (surinam grass; [2]) | B. signalgrass plant response rating (surinam grass; [3]) | B. signalgrass plant response rating (surinam grass; [4]) | B. signalgrass plant response rating (surinam grass; [5]) | Plant response rating, B. signalgrass (surinam grass; [6]) | B. signalgrass plant response rating (surinam grass; [7]) | Blackgrass plant response rating (blackgrass; [1]) | Blackgrass plant response rating (0 to 10 scale) (blackgrass; Preemergence, Rate 125 g/ha) | Blackgrass plant response rating (blackgrass; [2]) | Blackgrass plant response rating (blackgrass; [3]) | Blackgrass plant response rating (blackgrass; [4]) | Blackgrass plant response rating (blackgrass; [5]) | Plant response rating, Blackgrass (blackgrass; [6]) | Blackgrass plant response rating (blackgrass; [7]) | Bedstraw plant response rating (bedstraw; [1]) | Bedstraw plant response rating (0 to 10 scale) (bedstraw; Preemergence, Rate 125 g/ha) | Bedstraw plant response rating (bedstraw; [2]) | Bedstraw plant response rating (bedstraw; [3]) | Bedstraw plant response rating (bedstraw; [4]) | Bedstraw plant response rating (bedstraw; [5]) | Plant response rating, Bedstraw (bedstraw; [6]) | Redroot pigweed plant response rating (pigweed; [1]) | Redroot pigweed plant response rating (0 to 10 scale) (pigweed; Preemergence, Rate 125 g/ha) | Redroot pigweed plant response rating (pigweed; [2]) | Redroot pigweed plant response rating (pigweed; [3]) | Redroot pigweed plant response rating (pigweed; [4]) | Redroot pigweed plant response rating (pigweed; [5]) | Plant response rating, Redroot pigweed (pigweed; [6]) | Wild oats plant response rating (wild oat; [1]) | Wild oats plant response rating (0 to 10 scale) (wild oat; Preemergence, Rate 125 g/ha) | Wild oats plant response rating (wild oat; [2]) | Wild oats plant response rating (wild oat; [3]) | Wild oats plant response rating (wild oat; [4]) | Wild oats plant response rating (wild oat; [5]) | Plant response rating, Wild oats (wild oat; [6]) | Nutsedge plant response rating (purple nutsedge; [1]) | Nutsedge plant response rating (0 to 10 scale) (purple nutsedge; Preemergence, Rate 125 g/ha) | Nutsedge plant response rating (purple nutsedge; [2]) | Nutsedge plant response rating (purple nutsedge; [3]) | Nutsedge plant response rating (purple nutsedge; [4]) | Nutsedge plant response rating (purple nutsedge; [5]) | Plant response rating, Nutsedge (purple nutsedge; [6]) | Rape plant response rating (rape; [1]) | Rape plant response rating (0 to 10 scale) (rape; Preemergence, Rate 125 g/ha) | Rape plant response rating (rape; [2]) | Rape plant response rating (rape; [3]) | Rape plant response rating (rape; [4]) | Rape plant response rating (rape; [5]) | Plant response rating, Rape (rape; [6]) | Wheat plant response rating (wheat; [1]) | Wheat plant response rating (0 to 10 scale) (wheat; Preemergence, Rate 125 g/ha) | Wheat plant response rating (wheat; [2]) | Wheat plant response rating (wheat; [3]) | Wheat plant response rating (wheat; [4]) | Wheat plant response rating (wheat; [5]) | Plant response rating, Wheat (wheat; [6]) | Ducksalad plant response rating (duck salad; [8]) | Ducksalad plant response rating (duck salad; [9]) | Ducksalad plant response rating (duck salad; [10]) | Ducksalad plant response rating (duck salad; [11]) | Crabgrass plant response rating (crabgrass; [1]) | Crabgrass plant response rating (0 to 10 scale) (crabgrass; Preemergence, Rate 125 g/ha) | Crabgrass plant response rating (crabgrass; [2]) | Crabgrass plant response rating (crabgrass; [3]) | Crabgrass plant response rating (crabgrass; [4]) | Crabgrass plant response rating (crabgrass; [5]) | Plant response rating, Crabgrass (crabgrass; [6]) | Corn plant response rating (corn; [1]) | Corn plant response rating (0 to 10 scale) (corn; Preemergence, Rate 125 g/ha) | Corn plant response rating (corn; [2]) | Corn plant response rating (corn; [3]) | Corn plant response rating (corn; [4]) | Corn plant response rating (corn; [5]) | Plant response rating, Corn (corn; [6]) | Corn plant response rating (corn; [7]) | Sugarbeets plant response rating (sugar beet; [1]) | Sugarbeets plant response rating (0 to 10 scale) (sugar beet; Preemergence, Rate 125 g/ha) | Sugarbeets plant response rating (sugar beet; [2]) | Sugarbeets plant response rating (sugar beet; [3]) | Sugarbeets plant response rating (sugar beet; [4]) | Sugarbeets plant response rating (sugar beet; [5]) | Plant response rating, Sugarbeets (sugar beet; [6]) | Velvetleaf plant response rating (velvetleaf; [1]) | Velvetleaf plant response rating (0 to 10 scale) (velvetleaf; Preemergence, Rate 125 g/ha) | Velvetleaf plant response rating (velvetleaf; [2]) | Velvetleaf plant response rating (velvetleaf; [3]) | Velvetleaf plant response rating (velvetleaf; [4]) | Velvetleaf plant response rating (velvetleaf; [5]) | Plant response rating, Velvetleaf (velvetleaf; [6]) | S. Flatsedge plant response rating (smallflower flatsedge; [8]) | S. Flatsedge plant response rating (smallflower flatsedge; [9]) | S. Flatsedge plant response rating (smallflower flatsedge; [10]) | S. Flatsedge plant response rating (smallflower flatsedge; [11]) | Soybean plant response rating (soybean; [1]) | Soybean plant response rating (0 to 10 scale) (soybean; Preemergence, Rate 125 g/ha) | Soybean plant response rating (soybean; [2]) | Soybean plant response rating (soybean; [3]) | Rice plant response rating (rice; [8]) | Rice plant response rating (rice; [9]) | Rice plant response rating (rice; [10]) | Rice plant response rating (rice; [11])
3: Plant response rating, Soybean (soybean; [6])
